Laboratory results reported in patent US9234046B2, “Treatment of renal disease” (OPSONA Therapeutics Ltd, priority 2007, dated 2016).

Test system: C57BL/6 mice
Assay: Warm renal ischemia/reperfusion, 30 minutes ischemia (Example 2)
Type: in vivo
Settings: mean±SEM, n=6, 1 day after 30 min ischemia/reperfusion
Description: Nine Experimental groups were used as follows: • 1) Sham-operated mice sacrificed 1 day after surgery, n=6, • 2) PBS-vehicle-treated mice 15 min before ischemia/1 day reperfusion, n=6, • 3) Isotype control antibody 10 mg/kg-treated mice 15 minutes before ischemia/1 day reperfusion, n=6 (The isotype control antibody is mouse IgG1 isotype control purchased from RnD systems (catalogue number MAB002), this isotype control antibody having binding specificity for Keyhole Limpet Hemocyanin (KLH) antigen), • 4) OPN301 anti-TLR2 monoclonal antibody 10 mg/kg-treated mice 15 minutes before ischemia/1 day reperfusion, n=6, • 5) Pargyline 6 mg/kg-treated mice 15 minutes before ischemia/1 day reperfusion, n=6, • 6) PBS-vehicle-treated mice 15 minutes before ischemia/5 days reperfusion, n=6, • 7) Isotype control antibody (RnD systems catalogue number MAB002) 10 mg/kg-treated mice 15 minutes before ischemia/5 days reperfusion, n=6, • 8) OPN301 anti-TLR2 antibody 10 mg/kg-treated mice 15 minutes before ischemia/5 days reperfusion, n=6, • 9) Pargyline 6 mg/kg-treated mice 15 minutes before ischemia/5 days reperfusion, n=6. Experimental Warm Renal Ischemia/Reperfusion
Warm renal ischemia/reperfusion (I/R) experiments were adapted from a previous study (Stokman et al, 2005). Briefly, a wild type strain of C57BL/6 mice were anesthetized with 10 μl/g of a mix of 2.5 ml ketamine (Ketalar 50 mg/ml, Centravet; Lapalisse, France), 0.5 ml xylazine (Rompun 2.5%, Centravet; Lapalisse, France), and 7 ml NaCl 0.9% (Centravet; Lapalisse, France). During surgery, animals were set on a 35° C. hotplate. After a 2 millimeters incision, the jugular vein was exposed for intravenous injection (insulin syringe; VWR, Fontenay-sous-Bois, France) of 300 μl (1 min infusion) of the considered treatment. The incision was closed after haemostasis (5/0 Ethicrin thread, Ethicon; Auneau, France). Three centimetre in length abdominal cutaneous and muscular incisions were performed; renal pedicles were exposed and clamped for 30 minutes using microaneurysm clamps (AREX; Palaiseau, France). […]

C#CCN(C)Cc1ccccc1 [Pargyline]
MDA level (lipid peroxidation) (PBS-vehicle 0.082±0.004): 0.051±0.002 nmol/mg proteins
MPO activity (neutrophil accumulation in renal tissue) (PBS-vehicle 63.2±9.55): 53.48±5.34 U MPO/mg protein
F4/80-positive staining (macrophage infiltration) (treated 15 min before ischemia (antibodies 10 mg/kg, pargyline 6 mg/kg), PBS-vehicle 3.24±0.21): 1.39±0.15%
